In patent US20240285631A1, “METHODS OF TREATING VASCULAR MALFORMATIONS” (priority 2023, published 2024):
Entries after “also recorded” stand apart in the source; their conditions may differ.

Assays:
[1] = system: retinal ECs in veins and arteries; assay: Flow-mediated EC polarization (Golgi orientation) in retinal vessels, BMP9/10 Abs model; assay type: in vivo, mouse; settings: BMP9/10 Abs + CDK4/6i
Description: FIG. 3C illustrates the polarity axis of each cell was defined as the angle between the direction of blood flow and the cell polarity axis, defined by a vector drawn from the center of the cell nucleus to the center of the Golgi apparatus. FIG. 3D illustrates EC polarization in arteries and veins of control, BMP9/10 Abs-treated, and BMP9/10 Abs- and CDK4/6i-treated animals. EC nuclei are immunostained with anti-ERG1,2,3 and Golgi apparatus with anti-GM130; ECs are labelled with IB4. […] FIG. 3E illustrates angular histograms showing the distribution of polarization angles of retinal ECs in arteries and veins from control, BMP9/10 Abs-treated, and BMP9/10 Abs- and CDK4/6i-treated P6 animals (N=6 to 8 retinas). FIG. 3F illustrates polarity index dot plots of ECs from arteries (A) and veins (V) from control, BMP9/10 Abs-treated, and BMP9/10 Abs- and CDK4/6i-treated P6 animals (N=6 to 8 retinas. Data are mean±SEM **p≤0.01, ns p>0.05). Two-Way ANOVA for independent measures was used. p≤0.05 was considered statistically significant. […] To analyze the orientation of the Golgi toward the direction of the flow in retinal vessels, we measured the angle formed by the vector nucleus/Golgi in each EC and the predicted blood flow vector in the vessel (as depicted in FIG. 3C). We also quantified the EC polarization using a polarity index^22 ranging from 1 (highly polarized) to 0 (random distribution).

[2] = system: vascular malformations in Alk1EC^iKO pups; assay: Blue latex dye vascular perfusion of brain, lungs and intestinal tract in Alk1EC^iKO pups; assay type: in vivo, mouse
Excerpt: (§1) FIG. 5A illustrates a timeline used for tamoxifen (Tx) injection and CDK4/6i treatment of Alk1EC^iKO pups. FIG. 5B illustrates representative images showing retinal vasculature labelled with IB4 from control, Alk1EC^iKO, and Alk1EC^iKO+CDK4/6i-treated P5 animals. Bar graphs showing (FIG. 5C) quantification of AV shunt number per retina, (FIG. 5D) vascular density, and (FIG. 5E) vascular progression. (N=8 to 10 retinas/group, at least 4 mice). Data are mean±SEM, One-way ANOVA, *p≤0.05, **p≤0.01). FIG. 5F illustrates a timeline used for Tx injection and CDK4/6i treatment of Alk1EC^iKO pups for blue latex dye perfusion experiments. FIG. 5G illustrates blue latex dye vascular perfusion in brains from control, Alk1EC^iKO, and Alk1EC^iKO+CDK4/6i-treated P7 animals. […] FIG. 5H illustrates the quantification of left middle cerebral artery (MCA) and basilar artery (BA) in control, Alk1EC^iKO, and Alk1EC^iKO+CDK4/6i-treated animals. FIG. 5I illustrates the quantification of the number of latex filled veins in control, Alk1EC^iKO, and Alk1EC^iKO+CDK4/6i-treated animals. (N=4 to 6 mice/group. Data are mean±SEM, one-way ANOVA with Holm-Šidàk's multiple comparison test, *p≤0.05, **p≤0.01, ***p<0.001). Scale bar (G): 4 mm.
(§2) About 50% of HHT patients harbor mutations in the Acvrl1 gene^1, which encodes for the ALK1 receptor. To validate the clinical relevance of the use of Palbociclib for the treatment of HHT, we crossed Cdh5Cre^ERT2 mice with Alk1^flox/flox mice (6-8-week-old) to generate an endothelial-specific inducible deletion of Alk1 (referred to as Alk1EC^iKO), which is an established preclinical mouse model of human HHT type 2^12,25. Neonatal Alk1EC^iKO pups received a single i.p. injection of tamoxifen at P3 to induce Alk1 gene deletion and were then treated with Palbociclib via oral gavage at P4, and their retinal vasculature was analyzed at P5 (FIG. 5A). […] Due to the relatively short survival time post-tamoxifen induction in Alk1EC^iKO mice (approximately 48 hours), our study is limited to a single Palbociclib injection, which represents a technical challenge in exploring additional treatments. […] Single Cell RNA sequencing analysis of Palbociclib effects on endothelial arteriovenous identity in Alk1EC^iKO mice.

BMP9 signaling = assay: Western Blot of BMP9-induced signaling in HUVECs; assay type: cell-based, human; settings: Palbociclib pre-treatment
Description: (§3) FIG. 8A illustrates Western Blot analysis of the phosphorylation of the indicated proteins in response to VEGF-A (1.5 nM) in control vs. CDK4/6i treated HUVECs. FIG. 8B illustrates Western Blot analysis of the phosphorylation of the indicated proteins in response to BMP9 (10 ng/ml) in control vs. CDK4/6i-treated HUVECs. FIG. 8C illustrates quantification of phosphorylation normalized to total protein levels. (N=5 independent experiments, Data are mean±SEM, Mann-Whitney U test: *p<0.05). […] FIG. 8E illustrates ENDOGLIN (green) and IB4 (white) staining of retinal flat-mounts from P5 Alk1^fl/fl, Alk1^fl/fl treated with CDK4/6i, Alk1EC^iKO, and Alk1EC^iKO treated with CDK4/6i animals (A: Artery; V: Vein). FIG. 8F illustrates quantification of fluorescence intensity of ENDOGLIN staining in (FIG. 8E) retinal venous vessels of the indicated animals (N=4 retinas per group. Data are mean±SEM, one-way ANOVA with Tukey's multiple comparison test: *p<0.05; ns p>0.05). FIG. 8G illustrates timeline used for Tx injection, and CDK4/6i and FLT1 blocking antibody treatment of Alk1EC^iKO pups. […]
(§4) Next, we treated HUVECs with Alk1 siRNA to silence Alk1 and test the VEGF-A-induced response, with or without Palbociclib treatment, using pAKT activation as a readout.

VEGF-A signaling = assay: Western Blot of VEGF-A-induced signaling in HUVECs; assay type: cell-based, human; settings: Palbociclib pre-treatment 24 h, 15-minute VEGF-A stimulation
Description: as §3, §4

[3] = system: vascular malformations in Alk1EC^iKO pups; assay: Retinal vasculature analysis in Alk1EC^iKO pups (HHT type 2 model); assay type: in vivo, mouse
Excerpt: as §1, §2
With bulk RNAseq analysis, we further investigated the effects of Palbociclib on these pathways in vivo on P7 retinal ECs from control pups or those treated with anti-BMP9/10, with or without CDK4/6i, as outlined in FIG. 2A. […] We also investigated the potential role of FLT1, a decoy receptor for VEFG-A, in the mechanism of action of Palbociclib, by injecting i.p. FLT1 blocking antibodies in Alk1EC^iKO mice simultaneously with CDK4/6i treatment (FIG. 8G).
All animal protocols and procedures were approved by the University of Virginia Animal Care and Use Committee and complied with all ethical regulations. Cdh5Cre^ERT21Rha^43 and Alk1^flox/flox were gifted from Drs. Ralf Adams and Paul Oh, respectively. R26p-Fucci2 (Fucci2) (Accession #CDB0203T)^44 and C57bl/6 mice were purchased from Riken and Jax, respectively. Cdh5Cre^ERT2 mice were crossed with Alk1^flox/flox mice (6-8-week-old) to generate Alk1EC^iKO pups. Cre activity in Alk1EC^iKO was induced in pups at P3 via a single intraperitoneal (i.p.) injection of Tamoxifen (Tx; Sigma T5648, […] of 4 mg/ml, resuspended in 10% ethanol and 90% corn oil). Alk1^flox/flox littermates were used as controls. Alk1EC^iKO mice were crossed with Fucci2 mice to generate Alk1EC^iKO-Fucci2 pups.

[4] = system: vascular anomalies in lungs and intestinal tracts of anti-BMP9/10-treated pups; assay: Blue latex dye vascular perfusion of lungs and duodenum in BMP9/10 Abs-treated pups; assay type: in vivo, mouse; settings: P7, BMP9/10 Abs + CDK4/6i
Description: Vascular perfusion assessed using blue latex dye in lungs (FIGS. 10C-D), duodenum (FIGS. 10E-F) and brain (FIGS. 10G-H) from control, BMP9/10 Abs-treated, BMP9/10 Abs- and CDK4/6i-treated P7 animals. Lung samples have been clarified. Quantifications of intrapulmonary artery diameter (FIG. 10D) and intestinal capillary diameter (FIG. 10F). Red arrows indicate intestinal capillaries (N=3 to 7 animals/group. Data are mean±SEM, one-way ANOVA with Holm-Šidàk's multiple comparison test, **p≤0.01, *p≤0.05, ns p>0.05). […] We then analyzed the effects of BMP9/10 antibodies and CDK4/6i treatment on lungs, brains, and intestinal tracts, which are commonly affected by vascular malformations in HHT patients. To visualize vascular anomalies in these tissues, we performed intracardiac injections of blue latex silicon dye in P7 control, and anti-BMP9/10-treated pups, with or without CDK4/6i treatment following the dosing protocol as shown in FIG. 2A. […] P7 pups were deeply anesthetized with isoflurane using a nose cone and a thoracotomy was performed to expose the heart. For brain and gastrointestinal vasculature perfusions, the right atrium was cut and an insulin syringe (27 G) pre-filled with 1 ml of blue latex (VWR 470024-612) was inserted in the apex of the left ventricle to perfuse approximately 600 ml of latex. […]

[5] = system: Retinoblastoma protein (Rb); assay: Western Blot of Rb Ser 807/811 phosphorylation in HUVECs; assay type: cell-based, human; settings: 24 h
Description: FIG. 11B illustrates Western Blot analysis of Rb Ser 807/811 phosphorylation in response to Palbociclib (CDK4/6i) (24 h) in HUVECs.
Primary Human Umbilical Vein Endothelial Cells (HUVECs) were purchased from Lonza (C2519AS) and cultured in EGM™2-Bulletkit™ medium (CC-3156 & CC-4176, Lonza). For VEGF-A- or BMP9-induced signaling response in HUVECs, cells (70% confluent) were treated with Palbociclib (3 mg/ml, CDK4/6i) for 12 h in EGM-2 medium prior to starvation overnight in EMB-2 media (CC-3162 Lonza) supplemented with 0.1% FBS and Palbociclib (3 mg/ml). Cells were stimulated with either VEGF-A (25 ng/ml for 15 min) or BMP9 (1 ng/ml for 2 h) and harvested for Western Blot analysis.
Cells were lysed in RIPA buffer (Abcam, ab206996) and equal amounts of proteins were separated on 4-15% gradient Criterion precast gels (Bio-Rad 567-1084). Proteins were then transferred onto nitrocellulose membranes (Bio-Rad). Western Blots were developed with chemiluminescence HRP substrate (Radiance plus, Azure Biosystems AC2103) on a digital image analyzer, Azure Imager c300.

[6] = tamoxifen P3, Palbociclib P4, P5

CC(=O)c1c(C)c2cnc(Nc3ccc(N4CCNCC4)cn3)nc2n(C2CCCC2)c1=O [Palbociclib, 6-acetyl-8-cyclopentyl-5-methyl-2-[5-(1-piperazinyl)pyridine-2-ylamino]pyrido[2,3-d]pyrimidin-7(8H)-one] was tested, and the “polarity of retinal ECs toward blood flow” value [1] was “oriented similarly to controls”, the “veins filled with blue latex (arteriovenous shunts) in the intestinal tract” value ([2]; P7, gastrointestinal tract) was “absent” and the “diameter of the basilar and middle cerebral arteries” value ([2]; brain, single dose of Palbociclib at P4) was “trend toward normalization”. The “number of latex-filled veins in brain” value ([2]; brain, vs untreated Alk1EC^iKO) was “significantly reduced”, the “latex blue dye extravasation across the intrapulmonary bed” value ([2]; lungs) was “dye extravasation was reduced” and the “SMAD1/5/8 phosphorylation in response to BMP9” value (BMP9 signaling) was “enhanced SMAD1/5/8 phosphorylation”. The “pAKT activation in response to VEGF-A” value (VEGF-A signaling) was “significantly decreased”, the “pERK1/2 activation in response to VEGF-A” value (VEGF-A signaling) was “significantly decreased” and the “AV shunt number per retina (FLT1 experiment)” value ([3]; Alk1^iECKO mice, Palbociclib alone, vs untreated) was “developed less AV shunts”. For the same compound, the “AV shunt number per retina with FLT1 blocking antibodies” value ([3]; Alk1^iECKO mice, Palbociclib plus i.p. FLT1 blocking antibodies (1.6 mg/kg)) was “numerous AV shunts, comparable to untreated”, the “vascular density at the front of the retinal vascular plexi” value [3, 6] was “prevented the formation of hyperdense and disorganized vascular networks” and the vascular progression [3, 6] was “normalized vascular progression”. The “number of AVMs (AV shunts) per retina” value ([3]; tamoxifen P3, Palbociclib oral gavage P4, retina at P5, vs untreated Alk1EC^iKO) was “significantly lower number of AVMs; also recorded: prevented the development of arterio-venous malformations”, the “vasodilation of small capillaries perfusing the duodenum” value ([4]; duodenum) was “not prevented by CDK4/6i treatment” and the “lung vascular anomalies and intrapulmonary artery diameter” value ([4]; lungs) was “significantly less vascular anomalies and intrapulmonary microvasculature vasodilation”. For the same compound, the Rb phosphorylation [5] was “induced hypo-phosphorylation of the Retinoblastoma protein (Rb)”.
